Experimental data taken from ChEMBL document CHEMBL1201862, “PubChem BioAssay data set” (2004).
Calls of active or inactive are those of the source. Unless noted, the calls are words filed in the database; no cut-off is given here.

What was measured:
[1] = cytotoxicity in mouse C2C12 myoblasts – cell-based, CellTiter-Glo ATP luminescence, 8/24/48 h, dry powder, cytotoxicity control for HRAS target identification, dose response (AID 720603); type: functional
[2] = test system: BJ; assay: growth inhibition of engineered Ras-driven BJ cells – cell-based, alamar blue fluorescence, cherrypicked samples, dose response (AID 2631); type: functional; settings: Homo sapiens;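 further: confirmatory dose-response assay in RAS-dependent BJ fibroblasts engineered with TERT, LT and ST, with cytotoxicity read by fluorescence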
[3] = BJeHLT cell viability loss – BJeHLT cells, dry powder, counter-screen for Ras selective lethality project, dose response (AID 493052); type: functional, cell-based; settings: Homo sapiens
[4] = general cell-killing toxicity readout – plate reader, dry powder samples, cytotoxicity control for PAX8 inhibitor project, dose response (AID 743021); type: functional, cell-based
[5] = cytotoxicity in U-251 CNS tumor cells – cell-based, Alamar Blue fluorescence, 8/24/48 h, dry powder, HRAS target identification, dose response (AID 720605); type: functional
[6] = cytotoxicity in primary human umbilical endothelium – cell-based, CellTiter-Glo ATP luminescence, 8/24/48 h, dry powder, cytotoxicity control for HRAS target identification, dose response (AID 720604); type: functional; settings: HUVEC
[7] = cAMP pathway inhibition in counterscreen cell line – TR-FRET cAMP detection, counter-screen for MC4R biased antagonist project, dose response (AID 602305); type: functional, cell-based;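 further: U2OS cells stimulated with forskolin near its EC80 as the cAMP inducer; potency is for inhibition of forskolin-stimulated cAMP signaling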
[8] = HRAS-V12 fibroblast viability reduction – cell-based, Alamar Blue, dry powder, Ras selective lethality project, primary screen (AID 493045); type: functional; settings: BJeLR
[9] = DRD BJ cell killing, Ras synthetic lethality – DRD BJ fibroblasts, HRASV12, dry powder, dose response (AID 493049); type: functional, cell-based
[10] = cytotoxicity in LOX IMVI melanoma cells – cell-based, CellTiter-Glo ATP luminescence, 8/24/48 h, dry powder, HRAS target identification, dose response (AID 720602); type: functional
[11] = biological target: Paired box protein Pax-8 (Homo sapiens, UniProt Q06710); assay: PAX8 transcriptional activity inhibition in RMG-I – RMG-I cells, luciferase, cherry-pick, dose response (AID 687027); type: functional, cell-based;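 further: luciferase reporter driven by Pax8 target thyroperoxidase promoter measured by SteadyGlo luminescence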
[12] = test system: INS1; assay: INS-1E survival protection against cytokine death – cell-based, luminescence, retest, dose response (AID 449756); type: functional; settings: Rattus norvegicus;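 further: cell death triggered by IL-1 beta plus TNF-alpha plus IFN-gamma mixture; protective hits raise ATP signal compared with cytokine alone wells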
[13] = time-course viability loss in HT-29 cells – cell-based, CellTiter-Glo, multiple timepoints, dry powder, HRas target identification project, dose response (AID 720598); type: functional
[14] = BJeH cell viability loss – BJeH cells, dry powder, counter-screen for Ras selective lethality project, dose response (AID 493054); type: functional, cell-based
[15] = cytotoxicity in SR immunoblastic lymphoma cells – cell-based, CellTiter-Glo ATP luminescence, 8-48 h, dry powder, mechanism study for HRAS target identification, late-stage follow-up (AID 720608); type: functional
[16] = cytotoxicity in CCRF-CEM lymphoblastic leukemia cells – cell-based, CellTiter-Glo ATP luminescence, 8/24/48 h, dry powder, HRAS target identification, dose response (AID 720607); type: functional
[17] = biological target: Melanocortin receptor 4 (Homo sapiens, UniProt P32245); assay: inhibitors of MC4R cAMP signaling – cell-based, TR-FRET, biased antagonists, dose response (AID 602298); type: functional;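 further: antagonist potency against agonist-stimulated cAMP production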
[18] = viability of PTEN-deleted HCT116 cells – cell-based, HCT116 PTEN knockout, dose response (AID 1047); type: functional;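 further: HCT116 colon tumor cells with PTEN knocked out; cells exposed to compound for 60 hours before readout; potency for loss of cell viability measured by luminescence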
[19] = cytotoxicity in SNB-19 cells – cell-based, CellTiter-Glo ATP luminescence, 8-48 h, dry powder, mechanism study for HRAS target identification, late-stage follow-up (AID 720611); type: functional
[20] = biological target: T1, Fatty acid synthase (Homo sapiens, UniProt P49327); assay: inhibition of human FAS-TE enzyme activity – biochemical, kinetic fluorescence intensity, dose response (AID 624326); type: functional;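 further: rate of fluorescence rise from hydrolysis of a fluorogenic O-methyl fluorescein ester substrate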
[21] = biological target: T2, Protein RecA (Mycobacterium tuberculosis, UniProt P9WHJ3); assay: Fluorescence Cell-Free Homogeneous Dose Retest to Identify Inhibitors of RecA-Intein Splicing Activity. [Related pubchem assays (depositor defined):AID2097, AID2223, AID489010, AID492950]; type: functional
T2 sequence (P9WHJ3 whole entry): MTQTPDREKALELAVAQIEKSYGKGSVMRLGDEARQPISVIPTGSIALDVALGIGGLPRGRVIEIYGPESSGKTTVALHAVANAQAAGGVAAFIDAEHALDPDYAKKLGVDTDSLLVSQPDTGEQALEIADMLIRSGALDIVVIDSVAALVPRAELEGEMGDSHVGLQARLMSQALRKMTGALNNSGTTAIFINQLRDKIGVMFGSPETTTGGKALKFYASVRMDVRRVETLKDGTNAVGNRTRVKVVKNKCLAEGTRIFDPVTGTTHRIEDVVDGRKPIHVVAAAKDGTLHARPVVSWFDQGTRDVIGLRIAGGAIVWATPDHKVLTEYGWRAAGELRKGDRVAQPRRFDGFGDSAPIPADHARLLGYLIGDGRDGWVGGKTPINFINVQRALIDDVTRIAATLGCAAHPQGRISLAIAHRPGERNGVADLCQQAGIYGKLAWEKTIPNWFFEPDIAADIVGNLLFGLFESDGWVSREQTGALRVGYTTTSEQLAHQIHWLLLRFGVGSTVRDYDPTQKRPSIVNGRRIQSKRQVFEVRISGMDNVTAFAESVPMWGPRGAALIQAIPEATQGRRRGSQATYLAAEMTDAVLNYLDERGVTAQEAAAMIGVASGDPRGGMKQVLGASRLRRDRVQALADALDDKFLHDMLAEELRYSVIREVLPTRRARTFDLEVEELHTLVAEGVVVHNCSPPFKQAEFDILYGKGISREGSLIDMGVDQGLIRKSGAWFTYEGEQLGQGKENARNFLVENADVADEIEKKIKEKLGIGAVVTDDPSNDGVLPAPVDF

[22] = cytotoxicity in HeLa cervical cancer cells – cell-based, CellTiter-Glo ATP luminescence, 8-48 h, dry powder, mechanism study for HRAS target identification, late-stage follow-up (AID 720609); type: functional
[23] = biological target: T1, Fatty acid synthase; assay: inhibition of human FAS-TE enzyme activity – biochemical, endpoint fluorescence intensity, uHTS hits, dose response (AID 624327); type: functional;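 further: fluorescence from hydrolysis of an O-methyl fluorescein acyl ester substrate by the enzyme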
[24] = biological target: T3, Replicative DNA helicase DnaB (Mycobacterium tuberculosis, UniProt P9WMR3); assay: DnaB intein splicing inhibitors, dose response, biochemical, cell-free fluorescence (AID 449749); type: functional
T3 sequence (P9WMR3 whole entry): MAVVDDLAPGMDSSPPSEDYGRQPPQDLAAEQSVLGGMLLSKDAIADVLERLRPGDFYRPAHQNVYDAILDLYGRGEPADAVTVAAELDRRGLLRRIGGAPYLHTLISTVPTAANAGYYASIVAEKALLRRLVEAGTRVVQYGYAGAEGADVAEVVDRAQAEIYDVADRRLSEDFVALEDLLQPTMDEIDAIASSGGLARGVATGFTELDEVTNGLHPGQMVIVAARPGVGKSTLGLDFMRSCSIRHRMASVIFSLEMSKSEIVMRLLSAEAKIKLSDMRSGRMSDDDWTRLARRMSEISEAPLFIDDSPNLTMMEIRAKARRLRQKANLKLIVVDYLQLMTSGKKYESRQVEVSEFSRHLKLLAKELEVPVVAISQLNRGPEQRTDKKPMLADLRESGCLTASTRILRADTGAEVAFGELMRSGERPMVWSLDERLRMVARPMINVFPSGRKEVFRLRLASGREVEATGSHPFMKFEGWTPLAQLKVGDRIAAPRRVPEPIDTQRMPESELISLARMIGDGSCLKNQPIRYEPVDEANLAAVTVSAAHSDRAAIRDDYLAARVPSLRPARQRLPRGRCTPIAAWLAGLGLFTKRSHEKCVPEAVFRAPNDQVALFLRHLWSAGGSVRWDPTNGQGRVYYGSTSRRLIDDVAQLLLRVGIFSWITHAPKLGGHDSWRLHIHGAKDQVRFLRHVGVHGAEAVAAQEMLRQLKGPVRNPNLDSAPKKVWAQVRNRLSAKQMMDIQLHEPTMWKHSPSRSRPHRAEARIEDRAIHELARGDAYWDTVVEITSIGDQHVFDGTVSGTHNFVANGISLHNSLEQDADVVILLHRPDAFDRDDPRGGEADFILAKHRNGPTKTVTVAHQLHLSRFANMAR

[25] = cytotoxicity in U-251 glioma cells – cell-based, CellTiter-Glo ATP luminescence, several timepoints, dry powder, mechanism study for HRAS target identification, late-stage follow-up (AID 720616); type: functional
[26] = viability of HCT116 lacking mutant beta-catenin – cell-based, human colon tumor, dose response (AID 1045); type: functional;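 further: HCT116 colon tumor cells with beta catenin knocked out; cells exposed to compound for 60 hours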
[27] = HEK-293T viability loss after treatment – luminescence, T-cell screen hits, cytotoxicity control for TCR NF-kB inhibitor project, dose response (AID 489026); type: functional, cell-based;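 further: cells exposed to compound about 14 hours before the viability readout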
[28] = test system: HEK293; assay: cells; settings: Homo sapiens
[29] = test system: J774.A1; assay: Confirmation of image-based Screening Assay for Inhibitors of Phagocytosis. [Related pubchem assays (depositor defined):AID1029, AID1643]; type: functional, cell-based; settings: Mus musculus
[30] = test system: HEK293; assay: cells; settings: Homo sapiens; remark: listed apart in the source

T1 sequence (P49327 whole entry): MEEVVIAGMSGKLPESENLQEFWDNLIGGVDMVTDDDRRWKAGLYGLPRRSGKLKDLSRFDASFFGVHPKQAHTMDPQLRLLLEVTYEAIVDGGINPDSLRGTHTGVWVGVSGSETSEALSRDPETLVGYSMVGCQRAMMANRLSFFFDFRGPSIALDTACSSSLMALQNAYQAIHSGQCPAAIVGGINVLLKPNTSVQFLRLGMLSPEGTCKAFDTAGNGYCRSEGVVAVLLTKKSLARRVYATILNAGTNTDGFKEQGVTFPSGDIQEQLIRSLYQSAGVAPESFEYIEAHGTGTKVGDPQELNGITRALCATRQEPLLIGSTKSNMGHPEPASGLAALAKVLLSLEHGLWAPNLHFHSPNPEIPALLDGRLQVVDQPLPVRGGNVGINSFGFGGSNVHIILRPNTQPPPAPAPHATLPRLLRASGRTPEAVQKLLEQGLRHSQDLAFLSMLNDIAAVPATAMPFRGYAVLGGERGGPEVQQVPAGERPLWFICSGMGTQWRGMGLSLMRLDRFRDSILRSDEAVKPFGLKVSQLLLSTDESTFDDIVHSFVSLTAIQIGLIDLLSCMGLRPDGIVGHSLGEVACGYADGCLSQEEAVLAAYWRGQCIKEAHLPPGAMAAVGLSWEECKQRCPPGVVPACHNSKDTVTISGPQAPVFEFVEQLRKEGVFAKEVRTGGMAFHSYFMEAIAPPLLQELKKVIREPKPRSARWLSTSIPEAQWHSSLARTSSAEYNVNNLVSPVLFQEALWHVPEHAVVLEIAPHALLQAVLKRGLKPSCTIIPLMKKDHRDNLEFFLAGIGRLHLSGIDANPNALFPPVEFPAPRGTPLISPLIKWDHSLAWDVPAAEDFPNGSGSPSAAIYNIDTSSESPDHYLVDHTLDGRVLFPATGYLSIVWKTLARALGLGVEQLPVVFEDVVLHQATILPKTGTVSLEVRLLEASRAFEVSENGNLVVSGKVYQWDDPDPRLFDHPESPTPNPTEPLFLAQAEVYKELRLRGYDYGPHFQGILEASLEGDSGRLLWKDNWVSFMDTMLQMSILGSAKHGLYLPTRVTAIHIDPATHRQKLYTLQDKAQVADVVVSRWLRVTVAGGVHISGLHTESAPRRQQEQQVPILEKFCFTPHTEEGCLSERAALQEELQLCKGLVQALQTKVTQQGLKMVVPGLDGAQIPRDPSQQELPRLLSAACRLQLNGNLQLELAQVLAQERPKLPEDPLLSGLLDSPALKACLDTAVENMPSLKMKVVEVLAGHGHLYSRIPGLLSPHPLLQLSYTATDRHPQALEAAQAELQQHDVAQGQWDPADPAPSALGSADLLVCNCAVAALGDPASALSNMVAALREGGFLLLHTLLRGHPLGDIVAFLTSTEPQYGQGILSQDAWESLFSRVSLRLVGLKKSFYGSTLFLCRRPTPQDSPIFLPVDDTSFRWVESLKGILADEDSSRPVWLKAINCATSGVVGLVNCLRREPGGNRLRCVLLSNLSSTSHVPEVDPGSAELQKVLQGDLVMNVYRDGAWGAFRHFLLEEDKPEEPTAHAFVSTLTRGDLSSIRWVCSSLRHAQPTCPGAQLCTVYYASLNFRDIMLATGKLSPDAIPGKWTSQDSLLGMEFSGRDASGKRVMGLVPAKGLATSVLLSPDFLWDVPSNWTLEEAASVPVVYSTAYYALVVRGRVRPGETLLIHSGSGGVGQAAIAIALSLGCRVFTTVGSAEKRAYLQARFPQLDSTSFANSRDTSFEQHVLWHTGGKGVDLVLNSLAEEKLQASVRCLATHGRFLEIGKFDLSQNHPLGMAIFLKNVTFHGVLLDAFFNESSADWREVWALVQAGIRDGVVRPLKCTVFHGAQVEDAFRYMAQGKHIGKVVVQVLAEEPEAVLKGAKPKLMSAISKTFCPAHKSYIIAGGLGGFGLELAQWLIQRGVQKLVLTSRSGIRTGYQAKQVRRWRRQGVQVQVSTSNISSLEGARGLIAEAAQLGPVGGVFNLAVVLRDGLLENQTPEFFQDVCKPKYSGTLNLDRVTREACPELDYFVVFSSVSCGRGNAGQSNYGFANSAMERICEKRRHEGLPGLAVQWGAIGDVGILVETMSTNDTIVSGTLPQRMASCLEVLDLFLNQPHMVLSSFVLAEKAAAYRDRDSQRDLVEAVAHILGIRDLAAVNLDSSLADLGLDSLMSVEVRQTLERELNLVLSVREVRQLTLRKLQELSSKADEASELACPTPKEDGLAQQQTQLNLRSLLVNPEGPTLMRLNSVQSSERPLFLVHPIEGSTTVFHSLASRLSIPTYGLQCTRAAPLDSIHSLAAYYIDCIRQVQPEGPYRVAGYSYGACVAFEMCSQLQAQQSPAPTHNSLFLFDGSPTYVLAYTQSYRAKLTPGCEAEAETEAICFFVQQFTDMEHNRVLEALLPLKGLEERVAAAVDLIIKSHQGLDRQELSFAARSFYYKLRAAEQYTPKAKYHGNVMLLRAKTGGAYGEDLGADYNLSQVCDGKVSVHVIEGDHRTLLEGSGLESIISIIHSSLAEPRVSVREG
Chain of Paired box protein Pax-8 (Q06710 whole entry): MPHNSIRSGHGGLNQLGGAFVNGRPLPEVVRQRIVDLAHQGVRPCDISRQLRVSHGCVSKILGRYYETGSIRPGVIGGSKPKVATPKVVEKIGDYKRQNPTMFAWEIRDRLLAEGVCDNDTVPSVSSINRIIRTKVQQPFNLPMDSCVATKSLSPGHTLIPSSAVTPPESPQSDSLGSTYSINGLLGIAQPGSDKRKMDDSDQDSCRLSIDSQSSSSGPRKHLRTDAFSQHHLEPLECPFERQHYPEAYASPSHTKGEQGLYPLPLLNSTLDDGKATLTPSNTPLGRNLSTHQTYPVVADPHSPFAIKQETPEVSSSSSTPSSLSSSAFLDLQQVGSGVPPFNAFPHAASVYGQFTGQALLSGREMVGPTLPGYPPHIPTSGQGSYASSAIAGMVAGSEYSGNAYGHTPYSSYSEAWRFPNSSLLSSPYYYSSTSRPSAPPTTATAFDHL
Chain of Melanocortin receptor 4 (P32245 whole entry): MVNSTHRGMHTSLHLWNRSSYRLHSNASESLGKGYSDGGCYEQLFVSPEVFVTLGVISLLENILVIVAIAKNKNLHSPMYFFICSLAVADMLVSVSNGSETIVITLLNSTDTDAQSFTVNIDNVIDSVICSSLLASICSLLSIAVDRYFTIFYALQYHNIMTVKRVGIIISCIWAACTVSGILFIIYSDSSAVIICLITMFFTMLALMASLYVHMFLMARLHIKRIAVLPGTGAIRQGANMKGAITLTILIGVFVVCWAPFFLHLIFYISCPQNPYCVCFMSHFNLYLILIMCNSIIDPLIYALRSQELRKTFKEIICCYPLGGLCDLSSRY

## COc1ccc(N(C(=O)CCl)C(C(=O)NCCc2ccccc2)c2cccs2)cc1Cl (stereo not given)
[1]
  AC50: 6.07 µM (active)
[2]
  EC50: 0.167 µM (active)
[3]
  AC50: 0.847 µM (active)
[4]
  AC50: 2.16 µM (active)
[5]
  AC50: 0.0572 µM (active)
[6]
  AC50: 12 µM (active)
[7]
  IC50: > 64.6 µM (inactive)
[8]
  AC50: 0.249 µM (active)
[9]
  AC50: 0.232 µM (active)
[10]
  AC50: 0.0563 µM (active)
[11]
  AC50: 0.323 µM (active)
[12]
  AC50: 2.82 µM (active)
[13]
  AC50: 0.296 µM (active)
[14]
  AC50: 0.76 µM (active)
[15]
  AC50: 0.0694 µM (active)
[16]
  AC50: 0.133 µM (active)
[17]
  IC50: > 64.6 µM (inactive)
[18]
  EC50: 1.48 µM (active)
[19]
  AC50: 1.18 µM (active)
[20]
  IC50: 10.6 µM (active)
[21]
  EC50: 0.24 µM (active)
[22]
  AC50: 0.582 µM (active)
[23]
  IC50: 10.2 µM (active)
[24]
  AC50: 1.82 µM (active)
[25]
  AC50: 0.941 µM (active)
[26]
  EC50: 0.765 µM (active)

## Cc1ccc(C(=O)Nc2ncc(Cc3ccc(SC(F)F)cc3)s2)cc1
[27]
  IC50: > 80 µM (inactive)
[28]
  EC50: > 59.7 µM (inactive)
[29]
  IC50: 1.75 µM (active)
[30]
  EC50: > 59.7 µM (inactive)
